Results published in US20080161340A1, “Tetrahydroquinilinones, tetrahydronaphthyridones and derivatives thereof” (priority 2006, published 2008).

How the values were obtained:
Type in all cases: cell-based
rCB2 = target: T1, rCB2 (Rattus norvegicus, UniProt Q9QZN9); assay: cAMP assay, rCB2 in Table 7, agonist/inverse agonist; details: intracellular cAMP; + agonist, − inverse agonist
T1 sequence (Q9QZN9 1-360): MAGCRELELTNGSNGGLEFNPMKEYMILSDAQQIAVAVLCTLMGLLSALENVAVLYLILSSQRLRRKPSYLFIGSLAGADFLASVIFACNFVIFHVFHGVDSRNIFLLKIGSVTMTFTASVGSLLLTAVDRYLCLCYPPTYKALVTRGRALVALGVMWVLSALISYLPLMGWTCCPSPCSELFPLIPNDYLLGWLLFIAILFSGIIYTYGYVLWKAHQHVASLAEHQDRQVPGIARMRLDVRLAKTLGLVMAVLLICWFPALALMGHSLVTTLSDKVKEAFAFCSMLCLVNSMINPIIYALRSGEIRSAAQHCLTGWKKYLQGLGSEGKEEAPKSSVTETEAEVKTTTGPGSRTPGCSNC
Description: (§1) Receptor mediated responses were determined by measuring changes in intracellular cAMP using LANCE cAMP detection kit (cat #AD0264, PerkinElmer, Wellesley, Mass.) based on time-resolved fluorescence resonance energy transfer (TR-FRET). Changes in cAMP were determined in cells pre-incubated with IBMX (isobutyl methylxanthine) and prestimulated with NKH-477 (a water soluble forskolin derivative, cat #1603, Tocris, Ellisville, Mo.) to increase basal cAMP levels as detailed below.
(§2) On the day of the experiment, cells were spun at low speed for 5 min at room temperature. The supernatant was removed and cells were resuspended in stimulation buffer (Hanks Buffered Salt Solution/5 mM HEPES, containing 0.5 mM IBMX (cat #17018, Sigma) and 0.02% BSA (PerkinElmer, cat #CR84-100)). Cell clumps were removed by filtering through cell strainer 40 μm (BD Falcon, Discovery Labware, Bedford, Mass.) and diluted to 2×10^5 cells/mL. Antibody supplied with the LANCE cAMP immunoassay kit was then added according to the manufacturer's instructions. An aliquot of cells was taken for un-induced controls. To the remaining cells was added NKH-477 (a water soluble forskolin derivative, Tocris cat #1603) to a final concentration of 2-8 μM. Cells were then incubated for 30 min at room temperature prior to adding to Proxiplates containing test compounds (final DMSO concentration was less than 0.5%) with a Multidrop bulk dispenser, followed by a sixty minute incubation at room temperature. The response was stopped by addition of the detection mix supplied with the LANCE kit.
(§3) The reagents were allowed to equilibrate for three hours prior to reading on an Envision multi-mode detector (PerkinElmer). TR-FRET was measured using a 330-380 nm excitation filter, a 665 nm emission filter, dichroic mirror 380 nm and Z=1 mm.
(§4) Cyclic AMP concentrations in each well were back-calculated from a cAMP standard curve run concurrently during each assay. Each plate contained 16 wells of forskolin stimulated cells and 16 wells of forskolin plus CP55,940-treated. CP55,940-treated cells were treated with CP55,940 (Tocris cat. # 0949) at 1 μm and the maximal response was used as the full range (100%) standard. WIN55,212 (Tocris cat. # 1038) was used as an internal standard. Concentrations of cAMP were expressed as a percent of the difference of these two groups of wells. Concentration-response data including ECso (the concentration of compound producing 50% of the maximal response) and intrinsic activity (the percent maximal activation compared to full activation by CP55,940) were determined using a four-parameter non-linear regression algorithm (Xlfit equation 251, IDBS).

hCB1 = target: T2, hCB1 (Homo sapiens, UniProt P21554); assay: cAMP assay (LANCE TR-FRET) in CHO-K1 cells stably expressing hCB1, agonist/inverse agonist; details: intracellular cAMP, CHO-K1 hCB1 cells prestimulated with NKH-477, + agonist, − inverse agonist; for EC50: read-out: hCB1 EC50 class
T2 construct: host or cells: CHO-K1
T2 sequence (P21554 whole entry): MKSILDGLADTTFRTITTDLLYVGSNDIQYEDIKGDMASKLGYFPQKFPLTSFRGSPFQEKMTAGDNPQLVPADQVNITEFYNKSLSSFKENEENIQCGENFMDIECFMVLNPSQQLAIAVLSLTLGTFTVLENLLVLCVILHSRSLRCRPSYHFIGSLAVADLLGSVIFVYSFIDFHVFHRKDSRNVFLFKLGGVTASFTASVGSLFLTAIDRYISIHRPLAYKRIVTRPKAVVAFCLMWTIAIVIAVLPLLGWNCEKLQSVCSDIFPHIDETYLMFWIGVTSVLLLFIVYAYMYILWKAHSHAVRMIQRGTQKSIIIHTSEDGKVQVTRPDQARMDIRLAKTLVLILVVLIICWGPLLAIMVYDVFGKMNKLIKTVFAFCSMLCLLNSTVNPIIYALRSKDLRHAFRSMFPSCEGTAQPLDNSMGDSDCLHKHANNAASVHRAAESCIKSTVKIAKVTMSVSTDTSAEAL
Description: (§5) The ability of compounds to act as agonists or inverse agonists at human CB2 and CB1 receptors (hCB2, hCB1, respectively) was determined by measuring changes in intracellular cAMP levels. Chinese Hamster Ovary (CHO-K1) cell lines stably expressing hCB2 (Genebank: X74328) or hCB1 (Genebank: X54937) were purchased from Euroscreen (Gosselies, Belgium).
(§6) Cell lines were grown in suspension in EX-CELL 302 CHO Serum-free medium (Sigma, cat #14324C) supplemented with 1% Fetal Bovine Serum, glutamine and non-essential amino-acids under 0.4 mg/mL G418 selection.
as §1, §2, §3, §4

hCB2 = target: T3, hCB2 (Homo sapiens, UniProt P34972); assay: cAMP assay (LANCE TR-FRET) in CHO-K1 cells stably expressing hCB2, agonist/inverse agonist; details: intracellular cAMP, CHO-K1 hCB2 cells prestimulated with NKH-477; + agonist, − inverse agonist
T3 construct: host or cells: CHO-K1
T3 sequence (P34972 whole entry): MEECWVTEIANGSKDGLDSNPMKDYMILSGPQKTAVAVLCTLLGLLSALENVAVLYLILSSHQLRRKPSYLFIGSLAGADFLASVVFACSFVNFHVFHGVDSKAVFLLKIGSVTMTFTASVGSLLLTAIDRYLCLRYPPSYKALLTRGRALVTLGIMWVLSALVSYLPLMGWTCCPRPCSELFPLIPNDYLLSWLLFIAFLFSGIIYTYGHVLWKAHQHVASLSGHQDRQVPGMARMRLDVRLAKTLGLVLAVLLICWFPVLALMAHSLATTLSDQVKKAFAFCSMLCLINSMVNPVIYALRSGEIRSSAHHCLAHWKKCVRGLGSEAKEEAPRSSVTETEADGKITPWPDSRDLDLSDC
Description: as §5, §6, §1, §2, §3, §4

| Structure (SMILES) | rCB2 EC50 class (rCB2) | EC50 (hCB1) [µM] | hCB2 EC50 class (hCB2) | hCB1 EC50 class (hCB1) |
| --- | --- | --- | --- | --- |
| O=c1c(-c2ccccc2)cc2c(n1CC1CCC1)CCCC2 [Compound 1, 1-(cyclobutylmethyl)-3-phenyl-5,6,7,8-tetrahydroquinolin-2(1H)-one] | +A | > 10 | +B | – |
| O=c1c(-c2ccccc2)cc2c(n1CC1CC1)CCCC2 [Compound 2, 1-(cyclopropylmethyl)-3-phenyl-5,6,7,8-tetrahydroquinolin-2(1H)-one] | +C | > 10 | +B | – |
| O=c1c(-c2cccc(F)c2)cc2c(n1CC1CC1)CCCC2 [Compound 4, 1-(cyclopropylmethyl)-3-(3-fluorophenyl)-5,6,7,8-tetrahydroquinolin-2(1H)-one] | +C | – | – | +C |
| O=c1c(-c2cc3c(n(CC4CCC4)c2=O)CCCC3)cc2c(n1CC1CCC1)CCCC2 [Compound 5, 1,1′-bis(cyclobutylmethyl)-5,5′,6,6′,7,7′,8,8′-octahydro-3,3′-biquinoline-2,2′(1H,1′H)-dione] | +A | – | +A | +C |
| O=c1c(-c2cccc(C(F)(F)F)c2)cc2c(n1CC1CCC1)CCCC2 [Compound 6, 1-(cyclobutylmethyl)-3-(3-(trifluoromethyl)phenyl)-5,6,7,8-tetrahydroquinolin-2(1H)-one] | +A | > 10 | +A | – |
| O=c1c(-c2ccc(C(F)(F)F)cc2)cc2c(n1CC1CCC1)CCCC2 [Compound 7, 1-(cyclobutylmethyl)-3-(4-(trifluoromethyl)phenyl)-5,6,7,8-tetrahydroquinolin-2(1H)-one] | +A | > 10 | +A | – |
| O=c1c(-c2cccc(Cl)c2)cc2c(n1CC1CCC1)CCCC2 [Compound 8, 3-(3-chlorophenyl)-1-(cyclobutylmethyl)-5,6,7,8-tetrahydroquinolin-2(1H)-one] | +A | > 10 | +A | – |
| O=c1c(-c2cccs2)cc2c(n1CC1CCC1)CCCC2 [Compound 9, 1-(cyclobutylmethyl)-3-(thiophen-2-yl)-5,6,7,8-tetrahydroquinolin-2(1H)-one] | +C | > 10 | +B | – |
| O=c1c(-c2cccnc2)cc2c(n1CC1CCC1)CCCC2 [Compound 10, 1-(cyclobutylmethyl)-3-(pyridin-3-yl)-5,6,7,8-tetrahydroquinolin-2(1H)-one] | +B | > 10 | +B | – |
| O=c1c(-c2ccoc2)cc2c(n1CC1CCC1)CCCC2 [Compound 12, 1-(cyclobutylmethyl)-3-(furan-3-yl)-5,6,7,8-tetrahydroquinolin-2(1H)-one] | +B | > 10 | +C | – |
| COc1ccncc1-c1cc2c(n(CC3CCC3)c1=O)CCCC2 [Compound 13, 1-(cyclobutylmethyl)-3-(4-methoxypyridin-3-yl)-5,6,7,8-tetrahydroquinolin-2(1H)-one] | – | – | +B | – |
| O=c1c(-c2ccccc2F)cc2c(n1CC1CCC1)CCCC2 [Compound 15, 1-(cyclobutylmethyl)-3-(2-fluorophenyl)-5,6,7,8-tetrahydroquinolin-2(1H)-one] | +B | > 10 | +B | – |
| O=c1c(C2=NN(c3ccccc3)C(c3ccco3)C2)cc2c(n1CC1CCC1)CCCC2 (stereo not drawn) [Compound 21, 1-(cyclobutylmethyl)-3-(5-(furan-2-yl)-1-phenyl-4,5-dihydro-1H-pyrazol-3-yl)-5,6,7,8-tetrahydroquinolin-2(1H)-one] | – | – | +C | – |
| O=c1c(-c2cccc(C(F)(F)F)c2)cc2c(n1CC1CCCCC1)CCCC2 [Compound 24, 1-(cyclohexylmethyl)-3-(3-(trifluoromethyl)phenyl)-5,6,7,8-tetrahydroquinolin-2(1H)-one] | – | – | +A | +B |
| Cc1noc(C)c1-c1cc2c(n(CC3CCC3)c1=O)CCCC2 [Compound 27, 1-(cyclobutylmethyl)-3-(3,5-dimethylisoxazol-4-yl)-5,6,7,8-tetrahydroquinolin-2(1H)-one] | – | – | +B | – |
| O=c1c(-c2cn[nH]c2)cc2c(n1CC1CCC1)CCCC2 [Compound 28, 1-(cyclobutylmethyl)-3-(1H-pyrazol-4-yl)-5,6,7,8-tetrahydroquinolin-2(1H)-one] | −C | > 10 | – | – |
| CC(C)(C)OC(=O)N1CCc2c(cc(-c3cccc(Cl)c3)c(=O)n2CC2CCC2)C1 [Compound 35, tert-butyl 3-(3-chlorophenyl)-1-(cyclobutylmethyl)-2-oxo-1,2,7,8-tetrahydro-1,6-naphthyridine-6(5H)-carboxylate] | −B | > 10 | – | – |
| CC(C)(C)OC(=O)N1CCc2c(cc(-c3ccc(C(F)(F)F)cc3)c(=O)n2CC2CCC2)C1 [Compound 36, tert-butyl 3-(4-(trifluoromethyl)phenyl)-1-(cyclobutylmethyl)-2-oxo-1,2,7,8-tetrahydro-1,6-naphthyridine-6(5H)-carboxylate] | −C | – | – | – |
| CC(C)(C)OC(=O)N1CCc2c(cc(-c3cccnc3)c(=O)n2CC2CCC2)C1 [Compound 37, tert-butyl 1-(cyclobutylmethyl)-2-oxo-3-(pyridin-3-yl)-1,2,7,8-tetrahydro-1,6-naphthyridine-6(5H)-carboxylate] | −C | – | – | – |
| O=C(c1ccno1)N1CCc2c(cc(-c3ccc(C(F)(F)F)cc3)c(=O)n2CC2CCC2)C1 [Compound 45, 1-(cyclobutylmethyl)-6-(isoxazole-5-carbonyl)-3-(4-(trifluoromethyl)phenyl)-5,6,7,8-tetrahydro-1,6-naphthyridin-2(1H)-one] | −C | > 10 | – | – |
| CC(C)C(=O)N1CCc2c(cc(-c3cccc(Cl)c3)c(=O)n2CC2CC2)C1 [Compound 51, 3-(3-chlorophenyl)-1-(cyclopropylmethyl)-6-isobutyryl-5,6,7,8-tetrahydro-1,6-naphthyridin-2(1H)-one] | – | – | +B | – |
| COc1cccc(-c2cc3c(n(CC4CCC4)c2=O)CCN(C(C)=O)C3)c1 [Compound 55, 6-acetyl-1-(cyclobutylmethyl)-3-(3-methoxyphenyl)-5,6,7,8-tetrahydro-1,6-naphthyridin-2(1H)-one] | −C | – | – | −B |
| O=c1c(-c2ccc(C(F)(F)F)cc2)cc2c(n1CC1CCC1)CCN(S(=O)(=O)c1ccccc1)C2 [Compound 56, 1-(cyclobutylmethyl)-6-(phenylsulfonyl)-3-(4-(trifluoromethyl)phenyl)-5,6,7,8-tetrahydro-1,6-naphthyridin-2(1H)-one] | −C | – | – | −B |
| O=c1c(-c2ccc(C(F)(F)F)cc2)cc2c(n1CC1CCC1)CCN(S(=O)(=O)c1cccc(F)c1)C2 [Compound 57, 1-(cyclobutylmethyl)-6-(3-fluorophenylsulfonyl)-3-(4-(trifluoromethyl)phenyl)-5,6,7,8-tetrahydro-1,6-naphthyridin-2(1H)-one] | −B | – | – | – |
